The values below come from patent US20160137639A1, “TRIAZOLE-ISOXAZOLE COMPOUND AND MEDICAL USE THEREOF” (JAPAN TOBACCO INC., priority 2012, published 2016).

One test addresses T1, mouse RORγ (Mus musculus, UniProt P51450).
T1 construct: mouse, NM_011281.2 and from Ile251 to Lys516; expressed in transfected cells; host or cells: CHO cells (transient co-transfection with pG5-Luc reporter)
T1 sequence (P51450 251-516): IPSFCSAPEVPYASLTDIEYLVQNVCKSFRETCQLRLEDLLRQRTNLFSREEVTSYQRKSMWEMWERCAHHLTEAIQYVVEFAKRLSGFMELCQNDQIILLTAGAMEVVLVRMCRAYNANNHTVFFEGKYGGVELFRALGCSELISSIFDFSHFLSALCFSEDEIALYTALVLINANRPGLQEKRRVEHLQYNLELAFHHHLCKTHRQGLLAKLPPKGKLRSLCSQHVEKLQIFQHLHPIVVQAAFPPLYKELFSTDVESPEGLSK
In words: Luciferase reporter gene assay of inhibitory effect against RORγ transcriptional activity (GAL4-mRORγ plasmid in CHO cells). In kind it is cell-based. Particulars: read-out: LUC EC50 mRORg. In a few lines: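 Readout is intracellular luciferase after 2-day compound exposure (8 concentrations, 0.1% DMSO) in CHO cells expressing GAL4 fused to mouse RORγ LBD residues Ile251–Lys516 plus pG5-Luc reporter. EC50 fitted from %-of-control; points showing resazurin-detected cytotoxicity dropped.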

Another test addresses T2, human RORγ (Homo sapiens, UniProt P51449).
T2 construct: human, NM_005060.3 and from Ser253 to Lys518; expressed in transfected cells; host or cells: CHO cells (transient co-transfection with pG5-Luc reporter)
T2 sequence (P51449 253-518): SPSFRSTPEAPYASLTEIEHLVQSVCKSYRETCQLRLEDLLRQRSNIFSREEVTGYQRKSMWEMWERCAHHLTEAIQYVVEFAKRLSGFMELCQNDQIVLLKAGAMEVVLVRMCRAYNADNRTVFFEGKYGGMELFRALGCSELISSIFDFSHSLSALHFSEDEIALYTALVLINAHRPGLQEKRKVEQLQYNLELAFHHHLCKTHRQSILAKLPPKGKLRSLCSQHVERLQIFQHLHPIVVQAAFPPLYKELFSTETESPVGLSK
In words: Luciferase reporter gene assay of inhibitory effect against RORγ transcriptional activity (GAL4-hRORγ plasmid in CHO cells). The note with it: read-out: LUC EC50 hRORg. The test is classed as cell-based.

Regarding `Cc1ccc(NC(=O)C[C@H](C[C@@H](C)O)c2nnc([C@H]3C[C@@H](CC(C)C)C3)n2C2CC2)c(C)c1` [Example F-560], the EC50 on mouse RORγ and on human RORγ was less than 3 µM throughout.
As for `Cc1ccc(NC(=O)C[C@H](CCO)c2nnc([C@H]3C[C@@H](CC(C)(C)C)C3)n2C2CC2)c(C)c1` [Example F-561], the EC50 on mouse RORγ and on human RORγ was less than 3 µM each time.
`Cc1ccc(NC(=O)C[C@H](CC(F)(F)F)c2nnc(-c3cc(CC(C)C)on3)n2C2CC2)c(C)c1` [Example F-567]: the concentration for a half-maximal effect (EC50) at mouse RORγ and at human RORγ was less than 3 µM each time.
As for `Cc1ccc(NC(=O)C[C@H](CC(F)(F)F)c2nnc([C@H]3C[C@@H](CC(C)C)C3)n2C2CC2)c(C)c1` [Example F-568], the EC50 on mouse RORγ and on human RORγ was less than 3 µM each time.
For `CCO[C@@H](CC(=O)Nc1ccc(C)cc1C)c1nnc(-c2cc(CC(C)C)on2)n1C1CC1` [Example F-569], the EC50 at mouse RORγ and on human RORγ was less than 3 µM throughout.
`Cc1ccc(NC(=O)[C@H]2CC(F)(F)C[C@@H]2c2nnc([C@H]3C[C@@H](CC(C)C)C3)n2C2CC2)c(C)c1` [Example F-571]: the EC50 on mouse RORγ and on human RORγ was less than 3 µM throughout.
Regarding `Cc1ccc(NC(=O)[C@@H]2CC(F)(F)C[C@H]2c2nnc([C@H]3C[C@@H](CC(C)C)C3)n2C2CC2)c(C)c1` [Example F-572], the EC50 on mouse RORγ and at human RORγ was less than 3 µM each time.
`Cc1ccc(NC(=O)C[C@H](C[C@H](C)O)c2nnc([C@H]3C[C@@H](CC(C)C)C3)n2C2CC2)c(C)c1` [Example F-574]: the EC50 on mouse RORγ and at human RORγ was less than 3 µM throughout.
Take `Cc1ccc(NC(=O)C[C@H](OC(C)C)c2nnc(-c3cc(CC(C)C)on3)n2C2CC2)c(C)c1` [Example F-575]: the EC50 at mouse RORγ and at human RORγ was less than 3 µM each time.
On to `Cc1cc(F)ccc1NC(=O)C[C@H](OC(C)C)c1nnc(-c2cc(CC(C)C)on2)n1C1CC1` [Example F-576], for which the EC50 at mouse RORγ and on human RORγ was less than 3 µM throughout.
Consider `Cc1ccc(NC(=O)C[C@H](CCO)c2noc([C@H]3C[C@@H](CC(C)C)C3)c2C2CC2)c(C)c1` [Example F-578], for which the EC50 at mouse RORγ and at human RORγ was less than 3 µM throughout.
For the molecule `Cc1ccc(NC(=O)C[C@@H](CCO)c2noc([C@H]3C[C@@H](CC(C)C)C3)c2C2CC2)c(C)c1` [Example F-579], the EC50 on mouse RORγ and at human RORγ was less than 3 µM throughout.
`Cc1ccc(NC(=O)CC(CCO)c2noc(C3CC(CC(C)C)C3)c2C2CC2)c(C)c1` (stereo not shown) [Example F-580]: the EC50 at mouse RORγ and at human RORγ was less than 3 µM in each case.
With `Cc1ccc(NC(=O)C[C@H](OCc2ccccc2)c2nnc([C@H]3C[C@@H](CC(C)C)C3)n2C2CC2)c(C)c1` [Example F-581], the EC50 at mouse RORγ and on human RORγ was less than 3 µM in each case.
On to `Cc1ccc(NC(=O)C[C@H](OCC(C)C)c2nnc([C@H]3C[C@@H](CC(C)C)C3)n2C2CC2)c(C)c1` [Example F-582], for which the EC50 on mouse RORγ and at human RORγ was less than 3 µM each time.
Take `CC(C)Cc1cc(-c2nnc([C@H](CC(=O)Nc3cccc4c3OC(F)(F)O4)OC(C)C)n2C2CC2)no1` [Example F-584]: the EC50 on mouse RORγ is less than 3 µM; on human RORγ, greater than 3 µM.
As for `Cc1ccc(NC(=O)C[C@H](CC(C)C)c2nnc(-c3cc(CC(C)C)on3)n2C2CC2)c(C)c1` [Example F-586], the EC50 at mouse RORγ and at human RORγ was less than 3 µM each time.
Regarding `Cc1ccc(NC(=O)C[C@H](CCO)c2nnc([C@H]3C[C@@H](CC(F)(F)F)C3)n2C2CC2)c(C)c1` [Example F-587], the EC50 at mouse RORγ and at human RORγ was less than 3 µM each time.
With `Cc1cc(F)ccc1NC(=O)C[C@H](CCO)c1nnc([C@H]2C[C@@H](CC(F)(F)F)C2)n1C1CC1` [Example F-588], the figures for the EC50 at mouse RORγ and on human RORγ were less than 3 µM and greater than 3 µM, respectively.
The matching figures for `Cc1c(F)cccc1NC(=O)C[C@H](CCO)c1nnc([C@H]2C[C@@H](CC(F)(F)F)C2)n1C1CC1` [Example F-589]: greater than 3 µM and greater than 3 µM.
